Experimental data taken from article PMC12486854, “Targeting mycobacterial transpeptidases: evaluating the roles of Ldt and PBP inhibition in suppressing Mycobacterium smegmatis” (Antimicrobial Agents and Chemotherapy, 2025).
Like-named read-outs stand apart in the source and are kept apart here.

Assays:
[1] = target: T1, Mtb PBP3 Δ1-122 (Mycobacterium tuberculosis, UniProt L0T911); assay: biochemical; type: biochemical
T1 construct: gene pbpB; N-terminally truncated (residues 1-122 removed), codon-optimised gene in pCold, E. coli BL21(DE3), His tag cleaved with 3C protease, calculated mass 60,148 Da, observed 60,152 Da

[2] = target: T2, LdtMt2 (Mycobacterium tuberculosis, UniProt I6Y9J2); assay: biochemical
T2 construct: gene ldtB

[3] = test system: Mycobacterium smegmatis (Msm); assay: microbe, parasite or virus in culture; conditions: without clavulanic acid, 96 h
[4] = target: T2, LdtMt2; assay: biochemical; remark: listed apart in the source
[5] = test system: Mycobacterium smegmatis (Msm); conditions: without clavulanic acid; 96 h
[6] = target: T1, Mtb PBP3 Δ1-122; assay: biochemical
[7] = test system: Mycobacterium smegmatis (Msm); design: broth microdilution MIC, resazurin read-out, 4 days at 37 C; conditions: without clavulanic acid; 96 h
[8] = 10 min pre-incubation, read-out: pIC50 LdtMt2 (converted)

T1 sequence (L0T911 whole entry, looked up, stated change not applied, the tested form may be a part): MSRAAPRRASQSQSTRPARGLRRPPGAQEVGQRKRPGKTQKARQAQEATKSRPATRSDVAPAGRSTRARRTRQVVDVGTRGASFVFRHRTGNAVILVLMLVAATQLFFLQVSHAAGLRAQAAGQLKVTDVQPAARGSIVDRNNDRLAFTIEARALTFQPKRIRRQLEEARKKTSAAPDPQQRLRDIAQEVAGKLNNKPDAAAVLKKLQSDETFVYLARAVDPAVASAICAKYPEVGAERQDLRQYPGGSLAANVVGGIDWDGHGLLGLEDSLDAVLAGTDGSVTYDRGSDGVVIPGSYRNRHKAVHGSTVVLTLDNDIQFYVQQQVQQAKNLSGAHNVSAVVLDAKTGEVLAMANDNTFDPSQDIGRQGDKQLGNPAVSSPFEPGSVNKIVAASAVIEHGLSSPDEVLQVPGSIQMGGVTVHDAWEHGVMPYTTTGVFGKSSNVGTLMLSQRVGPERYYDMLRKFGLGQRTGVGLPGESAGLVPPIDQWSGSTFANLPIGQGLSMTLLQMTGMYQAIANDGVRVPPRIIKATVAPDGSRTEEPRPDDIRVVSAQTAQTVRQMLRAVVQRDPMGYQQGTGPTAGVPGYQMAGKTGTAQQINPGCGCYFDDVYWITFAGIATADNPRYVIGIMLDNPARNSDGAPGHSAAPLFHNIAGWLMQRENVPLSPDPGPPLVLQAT
T2 sequence (I6Y9J2 35-408): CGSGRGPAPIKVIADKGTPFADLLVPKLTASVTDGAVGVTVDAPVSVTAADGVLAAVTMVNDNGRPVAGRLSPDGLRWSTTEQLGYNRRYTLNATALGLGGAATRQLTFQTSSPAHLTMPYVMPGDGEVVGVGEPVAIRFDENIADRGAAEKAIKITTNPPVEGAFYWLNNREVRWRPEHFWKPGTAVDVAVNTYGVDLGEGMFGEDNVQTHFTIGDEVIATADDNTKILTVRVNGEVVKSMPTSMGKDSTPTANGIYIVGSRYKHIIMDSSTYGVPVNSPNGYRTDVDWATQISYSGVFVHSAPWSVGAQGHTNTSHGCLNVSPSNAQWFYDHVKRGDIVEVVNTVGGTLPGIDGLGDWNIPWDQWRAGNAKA

## O=C(C1OC1c1ccccc1)C1OC1c1ccccc1 (stereo not drawn) [compound 28, 28]
[1]
  pIC50: < 3.4

## O=[N+]([O-])c1ccc(S(=O)(=O)c2ccccc2)nc1 [compound 31, 31]
[2]; [8]
  IC50: 5.01 µM
[3]
  MIC Msm (µg/mL), no clavulanic acid: 8 µg/mL
[4]; read-out: kinact/KI LdtMt2
  kinact/KI: 52.6 M⁻¹ s⁻¹
[1]
  IC50: > 398 µM

## C[C@@H](O)[C@H]1C(=O)N2C(C(=O)O)=C(S[C@@H]3CN[C@H](CNS(N)(=O)=O)C3)[C@H](C)[C@H]12 [doripenem]
[3]
  MIC Msm (µg/mL), no clavulanic acid: 0.5 µg/mL

## O=S(=O)(c1ccccc1)c1ccncc1 [compound 39, 39]
[2]; [8]
  IC50: > 39.8 µM
[4]; read-out: kinact/KI LdtMt2
  kinact/KI: < 10 M⁻¹ s⁻¹
[5]
  MIC Msm (µg/mL), no clavulanic acid: >128 µg/mL

## C[C@@H](O)[C@H]1C(=O)N2C(C(=O)O)=C(SCCN=CN)C[C@H]12 [compound 2, imipenem]
[3]
  MIC Msm (µg/mL), no clavulanic acid: 0.125 µg/mL
[6]
  IC50: 0.501 µM

## N#Cc1ccc(S(=O)(=O)c2ccccc2)nc1 [compound 41, 41]
[2]; [8]
  IC50: 25.1 µM
[4]; read-out: kinact/KI LdtMt2
  kinact/KI: < 10 M⁻¹ s⁻¹
[5]
  MIC Msm (µg/mL), no clavulanic acid: >128 µg/mL

## Nc1ncc(S(=O)(=O)c2ccc([N+](=O)[O-])cc2)s1 [compound 45, 45]
[5]
  MIC Msm (µg/mL), no clavulanic acid: >128 µg/mL

## COc1ccc(CN2C(=O)C(=O)c3cc(Br)cc(C)c32)cc1OC [compound 22, 22]
[1]
  IC50: > 398 µM

## NC(=O)C=CC(=O)Nc1ccc(Cl)cc1 [compound 30, 30]
[1]
  IC50: > 398 µM

## O=[N+]([O-])c1ccc(Cl)nc1 [compound 43, 43]
[2]; [8]
  IC50: > 39.8 µM
[4]; read-out: kinact/KI LdtMt2
  kinact/KI: < 10 M⁻¹ s⁻¹
[5]
  MIC Msm (µg/mL), no clavulanic acid: 32 µg/mL

## O=[N+]([O-])c1ccc(S(=O)(=O)c2ncc(C(F)(F)F)cc2Cl)cc1 [compound 46, 46]
[2]; [8]
  IC50: > 39.8 µM
[4]; read-out: kinact/KI LdtMt2
  kinact/KI: < 10 M⁻¹ s⁻¹
[5]
  MIC Msm (µg/mL), no clavulanic acid: >128 µg/mL

## O=S(=O)(c1ccccc1)c1ccccn1 [compound 37, 37]
[2]; [8]
  IC50: > 39.8 µM
[4]; read-out: kinact/KI LdtMt2
  kinact/KI: < 10 M⁻¹ s⁻¹
[5]
  MIC Msm (µg/mL), no clavulanic acid: >128 µg/mL

## N#Cn1c(-c2cc(F)cc(C(F)(F)F)c2)nc2ccccc21 [compound 25, 25]
[3]
  MIC Msm (µg/mL), no clavulanic acid: 48 µg/mL
[1]
  IC50: > 398 µM

## C[C@@H](O)[C@H]1C(=O)N2C(C(=O)O)=C([C@H]3CCCO3)S[C@H]12 [compound 1, faropenem]
[3]
  MIC Msm (µg/mL), no clavulanic acid: 16 µg/mL

## NC(=O)OCC1=C(C(=O)O)N2C(=O)C(NC(=O)C(=CS(=O)(=O)CCc3ccc(O)c(O)c3)c3csc(N)n3)C2SC1 (stereo not drawn) [compound 24, 24]
[1]
  pIC50: 6.1 ± 0.089

## CC[C@@H](CO)NCCN[C@@H](CC)CO [Ethambutol]
[7]
  MIC Msm (µg/mL), no clavulanic acid: 0.25 µg/mL

## O=[N+]([O-])c1ccc(S(=O)(=O)c2ccc(Br)cc2)nc1 [compound 35, 35]
[4]; read-out: kinact/KI LdtMt2
  kinact/KI: 272 M⁻¹ s⁻¹

## CO/N=C(\C(=O)N[C@@H]1C(=O)N2C(C(=O)O)=C(CSc3nc(=O)c(=O)[nH]n3C)CS[C@H]12)c1csc(N)n1 [compound 7, ceftriaxone]
[3]
  MIC Msm (µg/mL), no clavulanic acid: >128 µg/mL

## C[C@@H](O)[C@H]1C(=O)N2C(C(=O)O)=C(S[C@@H]3CN[C@H](C(=O)Nc4cccc(C(=O)O)c4)C3)[C@H](C)[C@H]12 [ertapenem]
[3]
  MIC Msm (µg/mL), no clavulanic acid: 4 µg/mL

## O=[N+]([O-])c1ccc(S(=O)(=O)c2ccccc2)cn1 [compound 32, 32]
[2]; [8]
  IC50: 25.1 µM
[4]; read-out: kinact/KI LdtMt2
  kinact/KI: < 10 M⁻¹ s⁻¹
[5]
  MIC Msm (µg/mL), no clavulanic acid: 4 µg/mL

## O=C1C=CC(=O)N1c1ccc(Oc2ccccc2)c(Cl)c1 [compound 19]
[3]
  MIC Msm (µg/mL), no clavulanic acid: 64 µg/mL
[6]
  IC50: 100 µM

## Clc1ccccn1 [compound 44, 44]
[2]
  IC50: > 39.8 µM
[4]; read-out: kinact/KI LdtMt2 (M^-1 s^-1)
  kinact/KI: < 10 M⁻¹ s⁻¹
[5]
  MIC Msm (µg/mL), no clavulanic acid: >128 µg/mL

## CC(C)(O/N=C(\C(=O)N[C@@H]1C(=O)N2C(C(=O)[O-])=C(C[n+]3ccccc3)CS[C@H]12)c1csc(N)n1)C(=O)O [compound 6, ceftazidime]
[3]
  MIC Msm (µg/mL), no clavulanic acid: >128 µg/mL
[1]
  IC50: 3.16 µM

## O=[N+]([O-])c1ccc(S(=O)(=O)c2ccc(Cl)cc2)nc1 [compound 34, 34]
[4]; read-out: kinact/KI LdtMt2
  kinact/KI: 86.9 M⁻¹ s⁻¹

## CC1(C)S[C@@H]2[C@H](NC(=O)[C@H](N)c3ccc(O)cc3)C(=O)N2[C@H]1C(=O)O [compound 12, amoxicillin]
[3]
  MIC Msm (µg/mL), no clavulanic acid: >128 µg/mL

## N#Cc1cccnc1S(=O)(=O)c1ccccc1 [compound 42, 42]
[2]; [8]
  IC50: > 39.8 µM
[4]; read-out: kinact/KI LdtMt2
  kinact/KI: < 10 M⁻¹ s⁻¹
[5]
  MIC Msm (µg/mL), no clavulanic acid: >128 µg/mL

## CC1(C)S[C@@H]2[C@H](NC(=O)C(C(=O)O)c3ccccc3)C(=O)N2[C@H]1C(=O)O (stereo partly drawn) [compound 15, carbenicillin]
[1]
  IC50: 3.98 µM

## O=C1C(=O)N(Cc2cccc3ccccc23)c2ccc(Br)cc21 [compound 23, 23]
[3]
  MIC Msm (µg/mL), no clavulanic acid: >128 µg/mL

## COc1ccc(S(=O)(=O)c2ccccc2)nc1 [compound 40, 40]
[2]; [8]
  IC50: > 39.8 µM
[4]; read-out: kinact/KI LdtMt2
  kinact/KI: < 10 M⁻¹ s⁻¹
[5]
  MIC Msm (µg/mL), no clavulanic acid: >128 µg/mL

## O=C(OCN1C(=O)C=CC1=O)c1ccccc1 [compound 20]
[3]
  MIC Msm (µg/mL), no clavulanic acid: 64 µg/mL

## O=[N+]([O-])c1cccnc1S(=O)(=O)c1ccccc1 [compound 36, 36]
[2]; [8]
  IC50: 25.1 µM
[4]; read-out: kinact/KI LdtMt2
  kinact/KI: < 10 M⁻¹ s⁻¹
[5]
  MIC Msm (µg/mL), no clavulanic acid: 16 µg/mL

## O=S(=O)(c1ccccc1)c1cccnc1 [compound 38, 38]
[2]; [8]
  IC50: > 39.8 µM
[4]; read-out: kinact/KI LdtMt2
  kinact/KI: < 10 M⁻¹ s⁻¹
[5]
  MIC Msm (µg/mL), no clavulanic acid: >128 µg/mL

## CC1(C)S[C@@H]2[C@H](NC(=O)[C@H](N)c3ccccc3)C(=O)N2[C@H]1C(=O)O [compound 11, ampicillin]
[3]
  MIC Msm (µg/mL), no clavulanic acid: >128 µg/mL

## NC(=O)C=CC(=O)Nc1ccc(Cl)cc1 [compound 30]
[3]
  MIC Msm (µg/mL), no clavulanic acid: >128 µg/mL

## CCC(C)[C@H](NC(=O)OCc1ccccc1)C(=O)CCl (stereo partly drawn) [compound 18, 18]
[1]
  pIC50: < 3.4

## C[C@@H](O)[C@H]1C(=O)N2C(C(=O)O)=C(S[C@@H]3CN[C@H](C(=O)N(C)C)C3)[C@H](C)[C@H]12 [meropenem]
[3]
  MIC Msm (µg/mL), no clavulanic acid: 2 µg/mL

## Cc1ccc(S(=O)(=O)c2ccc([N+](=O)[O-])cn2)cc1 [compound 33, 33]
[4]; read-out: kinact/KI LdtMt2
  kinact/KI: 51.9 M⁻¹ s⁻¹

## COc1ccc(CN2C(=O)C(=O)c3cc(Br)cc(C)c32)cc1OC [compound 22]
[3]
  MIC Msm (µg/mL), no clavulanic acid: >128 µg/mL

## O=C(O)[C@H]1/C(=C/CO)O[C@@H]2CC(=O)N21 [compound 17, clavulanic acid]
[3]; Mycolicibacterium smegmatis, read-out: MIC Msm (µg/mL), no clavulanic acid
  MIC: 128 µg/mL
[6]
  IC50: > 398 µM

## O=c1c2cc(Cl)c(Cl)cc2sn1CCO [compound 21, 21]
[3]
  MIC Msm (µg/mL), no clavulanic acid: 32 µg/mL
[6]
  IC50: 79.4 µM

## CCC(C)[C@H](NC(=O)OCc1ccccc1)C(=O)CCl (stereo partly drawn) [compound 18]
[3]
  MIC Msm (µg/mL), no clavulanic acid: >128 µg/mL

## COc1cccc(NC(=O)C(Cl)=C(Cl)S(=O)(=O)Cc2ccccc2Cl)n1 [compound 29, 29]
[1]
  pIC50: < 3.4

## C[C@H]1[C@H](NC(=O)/C(=N\OC(C)(C)C(=O)O)c2csc(N)n2)C(=O)N1S(=O)(=O)O [compound 16, aztreonam]
[1]
  IC50: 158 µM

## N#Cn1c(-c2ccncc2)nc2ccc(C(=O)c3ccccc3)cc21 [compound 26]
[3]
  MIC Msm (µg/mL), no clavulanic acid: 16 µg/mL
